The values below come from patent US8765779B2, “Tricyclic derivatives and their pharmaceutical use and compositions” (Cephalon, Inc., priority 2009, dated 2014).

Structures are written as SMILES. Structures can show the parent of a compound that is named as a salt.

In the assay the target is T1, human 5-HT6 receptor (Homo sapiens, UniProt P50406).
T1 construct: host or cells: CHO-K1 cells, stably transfected; membranes prepared in house
T1 sequence (P50406 whole entry): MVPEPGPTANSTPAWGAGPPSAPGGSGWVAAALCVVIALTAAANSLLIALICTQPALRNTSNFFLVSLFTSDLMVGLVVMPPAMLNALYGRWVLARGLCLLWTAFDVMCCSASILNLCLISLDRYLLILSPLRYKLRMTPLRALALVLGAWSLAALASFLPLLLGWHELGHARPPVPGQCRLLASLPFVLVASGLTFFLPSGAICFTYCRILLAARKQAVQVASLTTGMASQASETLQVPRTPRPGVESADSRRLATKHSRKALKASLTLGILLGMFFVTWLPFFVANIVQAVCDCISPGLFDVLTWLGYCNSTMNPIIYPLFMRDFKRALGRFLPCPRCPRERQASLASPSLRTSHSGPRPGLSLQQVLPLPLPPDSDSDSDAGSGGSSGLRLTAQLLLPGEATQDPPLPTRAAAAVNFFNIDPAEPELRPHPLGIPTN
Briefly: Human 5-HT6 Receptor Binding Assay ([3H]LSD displacement, scintillation beads). The following applies: membranes of CHO-K1 cells with recombinant human 5-HT6, 4 nM [3H]LSD; Table 1, class symbols; read-out: h5-HT6 (Ki).
With `O=S(=O)(c1cccc(F)c1)c1ccc2oc3c(c2c1)CCN1CCCCC31` (stereo not drawn) [Example 618], the Ki (commonly the dissociation constant of the complex between target and ligand, obtained from inhibition or displacement) was above 1 µM. With `O=S(=O)(c1cccc(F)c1)c1ccc2oc3c(c2c1)CCN1CCC31` (stereo not drawn) [Example 619], the Ki was below 0.5 µM. On to `O=S(=O)(c1cccc(Cl)c1)c1ccc2c3c(oc2c1)C1CCCCN1CC3` (stereo not drawn) [Example 620], for which the inhibitory constant (Ki) was below 0.5 µM.

On to `O=S(=O)(c1cccc(Cl)c1)c1ccc2c3c(oc2c1)C1CCN1CC3` (stereo not drawn) [Example 621], for which the Ki is below 0.5 µM. Take `CC(C)Oc1cccc(S(=O)(=O)c2ccc3c(c2)OC2C3CCNC23CCC3)c1` (stereo not drawn) [Example 622, 7-{[3-(Propan-2-yloxy)phenyl]sulfonyl}-3,4,4a,9a-tetrahydro-2H-spiro[1-benzofuro[2,3-c]pyridine-1,1′-cyclobutane]hydrochloride]: the Ki was below 0.5 µM.

In the case of `CC1(C)NCCC2c3ccc(S(=O)(=O)c4cccc(F)c4)cc3OC21` (stereo not drawn) [Example 624, 7-[(3-Fluorophenyl)sulfonyl]-1,1-dimethyl-1,2,3,4,4a,9a-hexahydro[1]benzofuro[2,3-c]pyridine], the Ki is below 0.5 µM. For `[O-][S+](c1cccc(F)c1)c1ccc2c(c1)OC1CNCCC21` (stereo not drawn) [Example 625, 7-[(3-Fluorophenyl)sulfinyl]-1,2,3,4,4a,9a-hexahydro[1]benzofuro[2,3-c]pyridine trifluoroacetic acid salt] the value was below 0.5 µM; for `CC(=O)NCC1(C)NCCc2c1oc1cc(S(=O)(=O)c3cccc(F)c3)ccc21` (stereo not drawn) [Example 631, N-({7-[(3-fluorophenyl)sulfonyl]-1-methyl-1,2,3,4-tetrahydro[1]benzofuro[2,3-c]pyridin-1-yl}methyl)acetamide], below 0.5 µM; for `CC(=O)NCC1(C)NCCc2c1oc1cc(S(=O)(=O)c3cccc(F)c3)ccc21` (stereo not drawn) [Example 632, N-({7-[(3-fluorophenyl)sulfonyl]-1-methyl-1,2,3,4-tetrahydro[1]benzofuro[2,3-c]pyridin-1-yl}methyl)acetamide], below 0.5 µM. The same measure for `COCC1(C)NCCc2c1oc1cc(S(=O)(=O)c3cccc(F)c3)ccc21` (stereo not drawn) [Example 633]: below 0.5 µM; for `COCC1(C)NCCc2c1oc1cc(S(=O)(=O)c3cccc(F)c3)ccc21` (stereo not drawn) [Example 634]: below 0.5 µM. Turning to `O=S(=O)(Oc1ccc2c(c1)OC1CNCCC21)c1ccc(Cl)cc1` (stereo not drawn) [Example 635, 1,2,3,4,4a,9a-Hexahydro[1]benzofuro[2,3-c]pyridin-7-yl 4-chlorobenzenesulfonate], the inhibitory constant (Ki) was below 0.5 µM. `O=S(=O)(Oc1ccc2c(c1)OC1CNCCC21)c1ccccc1` (stereo not drawn) [Example 636]: the Ki was below 0.5 µM.

In the case of `O=S(=O)(Cc1ccccc1)Oc1ccc2c(c1)OC1CNCCC21` (stereo not drawn) [Example 637], the Ki was above 1 µM.

For the compound `O=S(=O)(Oc1ccc2c(c1)OC1CNCCC21)c1c(Cl)nc2sccn12` (stereo not drawn) [Example 638], the Ki is below 0.5 µM. Consider `Cn1cnc(S(=O)(=O)Oc2ccc3c(c2)OC2CNCCC32)c1` (stereo not drawn) [Example 639], for which the Ki is above 1 µM. The same measure for `Cc1oncc1S(=O)(=O)Oc1ccc2c(c1)OC1CNCCC21` (stereo not drawn) [Example 640]: above 1 µM. Regarding `Cc1cccc(S(=O)(=O)Oc2ccc3c(c2)OC2CNCCC32)c1` (stereo not drawn) [Example 641], the Ki is below 0.5 µM.

On to `Cc1ccc(S(=O)(=O)Oc2ccc3c(c2)OC2CNCCC32)cc1` (stereo not drawn) [Example 642], for which the Ki is below 0.5 µM. In the case of `O=S(=O)(Oc1ccc2c(c1)OC1CNCCC21)c1cccc(F)c1` (stereo not drawn) [Example 643], the inhibitory constant (Ki) is below 0.5 µM.

`O=S(=O)(Oc1ccc2c(c1)OC1CNCCC21)c1ccc(F)cc1` (stereo not drawn) [Example 644]: the Ki is below 0.5 µM.

With `Cc1nc(S(=O)(=O)Oc2ccc3c(c2)OC2CNCCC32)cn1C` (stereo not drawn) [Example 645], the Ki is above 1 µM. For `Cc1noc(C)c1S(=O)(=O)Oc1ccc2c(c1)OC1CNCCC21` (stereo not drawn) [Example 646] the value was 0.5 to 1 µM. The same measure for `Cc1ccc(C)c(S(=O)(=O)Oc2ccc3c(c2)OC2CNCCC32)c1` (stereo not drawn) [Example 647]: below 0.5 µM; for `Cc1cc(C)cc(S(=O)(=O)Oc2ccc3c(c2)OC2CNCCC32)c1` (stereo not drawn) [Example 648]: below 0.5 µM; for `Cc1ccc(S(=O)(=O)Oc2ccc3c(c2)OC2CNCCC32)cc1C` (stereo not drawn) [Example 649]: below 0.5 µM. The same measure for `COc1ccc(S(=O)(=O)Oc2ccc3c(c2)OC2CNCCC32)cc1` (stereo not drawn) [Example 650]: below 0.5 µM; for `COc1cccc(S(=O)(=O)Oc2ccc3c(c2)OC2CNCCC32)c1` (stereo not drawn) [Example 651]: below 0.5 µM; for `Cc1ccc(S(=O)(=O)Oc2ccc3c(c2)OC2CNCCC32)cc1F` (stereo not drawn) [Example 652]: 0.5 to 1 µM. For the compound `O=S(=O)(Oc1ccc2c(c1)OC1CNCCC21)c1cccc(Cl)c1` (stereo not drawn) [Example 653], the Ki was below 0.5 µM. For `O=S(=O)(Oc1ccc2c(c1)OC1CNCCC21)c1ccccc1Cl` (stereo not drawn) [Example 654] the value was below 0.5 µM; for `O=S(=O)(Oc1ccc2c(c1)OC1CNCCC21)c1cc2ccccc2o1` (stereo not drawn) [Example 655], below 0.5 µM; for `Cc1cc(C)c(S(=O)(=O)Oc2ccc3c(c2)OC2CNCCC32)c(C)c1` (stereo not drawn) [Example 656], below 0.5 µM.

With `CC(C)c1ccc(S(=O)(=O)Oc2ccc3c(c2)OC2CNCCC32)cc1` (stereo not drawn) [Example 657], the Ki was below 0.5 µM.

Turning to `Cc1c(Cl)cccc1S(=O)(=O)Oc1ccc2c(c1)OC1CNCCC21` (stereo not drawn) [Example 658], the Ki was below 0.5 µM. `Cc1ccc(S(=O)(=O)Oc2ccc3c(c2)OC2CNCCC32)cc1Cl` (stereo not drawn) [Example 659]: the Ki was above 1 µM. The same measure for `O=S(=O)(Oc1ccc2c(c1)OC1CNCCC21)c1ccc2ccccc2c1` (stereo not drawn) [Example 661]: below 0.5 µM. For `O=S(=O)(Oc1ccc2c(c1)OC1CNCCC21)c1cccc2cccnc12` (stereo not drawn) [Example 662] the value was below 0.5 µM; for `O=S(=O)(Oc1ccc2c(c1)OC1CNCCC21)c1ccc(F)c(Cl)c1` (stereo not drawn) [Example 663], below 0.5 µM; for `O=S(=O)(Oc1ccc2c(c1)OC1CNCCC21)c1cc2ccccc2s1` (stereo not drawn) [Example 664], below 0.5 µM. Take `O=S(=O)(Oc1ccc2c(c1)OC1CNCCC21)c1csc2ccccc12` (stereo not drawn) [Example 665]: the Ki was below 0.5 µM. Regarding `CC(C)(C)c1ccc(S(=O)(=O)Oc2ccc3c(c2)OC2CNCCC32)cc1` (stereo not drawn) [Example 666], the Ki was below 0.5 µM. In the case of `CC(=O)Nc1ccc(S(=O)(=O)Oc2ccc3c(c2)OC2CNCCC32)cc1` (stereo not drawn) [Example 667], the Ki is above 1 µM. As to `O=S(=O)(Oc1ccc2c(c1)OC1CNCCC21)c1ccc2c(c1)OCCO2` (stereo not drawn) [Example 668], the Ki is below 0.5 µM. For the compound `O=S(=O)(Oc1ccc2c(c1)OC1CNCCC21)c1cccc2nsnc12` (stereo not drawn) [Example 669], the Ki is below 0.5 µM.

For the compound `COc1ccc(OC)c(S(=O)(=O)Oc2ccc3c(c2)OC2CNCCC32)c1` (stereo not drawn) [Example 670], the Ki was below 0.5 µM.

For the compound `O=S(=O)(Oc1ccc2c(c1)OC1CNCCC21)c1ccc(-n2cccn2)cc1` (stereo not drawn) [Example 671], the Ki is below 0.5 µM.

Regarding `O=S(=O)(Oc1ccc2c(c1)OC1CNCCC21)c1ccc(-c2cnco2)cc1` (stereo not drawn) [Example 672], the Ki was below 0.5 µM.

As for `O=S(=O)(Oc1ccc2c(c1)OC1CNCCC21)c1ccc(C(F)(F)F)cc1` (stereo not drawn) [Example 673], the Ki was below 0.5 µM. The same measure for `O=S(=O)(Oc1ccc2c(c1)OC1CNCCC21)c1ccccc1C(F)(F)F` (stereo not drawn) [Example 674]: below 0.5 µM; for `O=S(=O)(Oc1ccc2c(c1)OC1CNCCC21)c1cccc(C(F)(F)F)c1` (stereo not drawn) [Example 675]: below 0.5 µM. With `O=S(=O)(Oc1ccc2c(c1)OC1CNCCC21)c1ccc(Cl)c(Cl)c1` (stereo not drawn) [Example 676], the Ki is below 0.5 µM. As to `O=S(=O)(Oc1ccc2c(c1)OC1CNCCC21)c1cc(Cl)cc(Cl)c1` (stereo not drawn) [Example 677], the Ki was below 0.5 µM. Consider `O=S(=O)(Oc1ccc2c(c1)OC1CNCCC21)c1cccc(Cl)c1Cl` (stereo not drawn) [Example 678], for which the Ki is below 0.5 µM.

As for `O=S(=O)(Oc1ccc2c(c1)OC1CNCCC21)c1c(Cl)cccc1Cl` (stereo not drawn) [Example 679], the Ki was below 0.5 µM. As to `O=S(=O)(Oc1ccc2c(c1)OC1CNCCC21)c1ccc(-c2ccon2)s1` (stereo not drawn) [Example 680], the Ki is below 0.5 µM. For the compound `O=S(=O)(Oc1ccc2c(c1)OC1CNCCC21)c1ccc(-c2ccccc2)cc1` (stereo not drawn) [Example 681], the Ki is below 0.5 µM. In the case of `O=S(=O)(Oc1ccc2c(c1)OC1CNCCC21)c1ccc(OC(F)(F)F)cc1` (stereo not drawn) [Example 682], the Ki was below 0.5 µM. `O=S(=O)(Oc1ccc2c(c1)OC1CNCCC21)c1ccc(N2CCOCC2)nc1` (stereo not drawn) [Example 683]: the Ki is 0.5 to 1 µM. As for `O=S(=O)(Oc1ccc2c(c1)OC1CNCCC21)c1cccc2cnccc12` (stereo not drawn) [Example 684], the inhibitory constant (Ki) was 0.5 to 1 µM. As to `O=S(=O)(Oc1ccc2c(c1)OC1CNCCC21)c1ccc(Oc2ccccc2)nc1` (stereo not drawn) [Example 685], the inhibition constant (Ki) is above 1 µM. In the case of `O=S(=O)(Oc1ccc2c(c1)OC1CNCCC21)c1csc(C(F)(F)F)c1-c1ccccc1` (stereo not drawn) [Example 686], the Ki was below 0.5 µM. As for `Cc1c(S(=O)(=O)Oc2ccc3c(c2)OC2CNCCC32)sc2ccc(Cl)cc12` (stereo not drawn) [Example 687], the Ki was below 0.5 µM. As for `O=[N+]([O-])c1ccc(S(=O)(=O)Oc2ccc3c(c2)OC2CNCCC32)cc1` (stereo not drawn) [Example 688], the inhibitory constant (Ki) was 0.5 to 1 µM. For `O=S(=O)(Oc1ccc2c(c1)OC1CNCCC21)c1ccccn1` (stereo not drawn) [Example 689] the value was above 1 µM; for `O=S(=O)(CC1CCCCC1)Oc1ccc2c(c1)OC1CNCCC21` (stereo not drawn) [Example 690], above 1 µM. Regarding `O=S(=O)(CCc1ccccc1)Oc1ccc2c(c1)OC1CNCCC21` (stereo not drawn) [Example 691], the Ki is above 1 µM.

For the compound `O=S(=O)(Oc1ccc2c(c1)C1CCNCC1O2)c1ccc(Cl)cc1` (stereo not drawn) [Example 695], the inhibitory constant (Ki) was above 1 µM.

As to `O=S(=O)(Oc1ccc2c(c1)C1CCNCC1O2)c1ccccc1` (stereo not drawn) [Example 696], the Ki is above 1 µM.

With `O=S(=O)(Cc1ccccc1)Oc1ccc2c(c1)C1CCNCC1O2` (stereo not drawn) [Example 697, 1,2,3,4,4a,9a-hexahydro[1]benzofuro[2,3-c]pyridin-6-yl phenylmethanesulfonate], the Ki was above 1 µM. For `O=S(=O)(Oc1ccc2c(c1)C1CCNCC1O2)c1c(Cl)nc2sccn12` (stereo not drawn) [Example 698], the Ki was below 0.5 µM. On to `Cc1cccc(S(=O)(=O)Oc2ccc3c(c2)C2CCNCC2O3)c1` (stereo not drawn) [Example 699], for which the Ki was below 0.5 µM.
